In series [1] the target is T1, hT1R1/hT1R3 umami receptor (Homo sapiens, UniProt Q7RTX0+Q7RTX1).
T1 construct: expressed in transfected cells; host or cells: HEK293 derivative stably expressing Gα15, clone I-17, expression induced with mifepristone
T1 sequence (Q7RTX1 21-841): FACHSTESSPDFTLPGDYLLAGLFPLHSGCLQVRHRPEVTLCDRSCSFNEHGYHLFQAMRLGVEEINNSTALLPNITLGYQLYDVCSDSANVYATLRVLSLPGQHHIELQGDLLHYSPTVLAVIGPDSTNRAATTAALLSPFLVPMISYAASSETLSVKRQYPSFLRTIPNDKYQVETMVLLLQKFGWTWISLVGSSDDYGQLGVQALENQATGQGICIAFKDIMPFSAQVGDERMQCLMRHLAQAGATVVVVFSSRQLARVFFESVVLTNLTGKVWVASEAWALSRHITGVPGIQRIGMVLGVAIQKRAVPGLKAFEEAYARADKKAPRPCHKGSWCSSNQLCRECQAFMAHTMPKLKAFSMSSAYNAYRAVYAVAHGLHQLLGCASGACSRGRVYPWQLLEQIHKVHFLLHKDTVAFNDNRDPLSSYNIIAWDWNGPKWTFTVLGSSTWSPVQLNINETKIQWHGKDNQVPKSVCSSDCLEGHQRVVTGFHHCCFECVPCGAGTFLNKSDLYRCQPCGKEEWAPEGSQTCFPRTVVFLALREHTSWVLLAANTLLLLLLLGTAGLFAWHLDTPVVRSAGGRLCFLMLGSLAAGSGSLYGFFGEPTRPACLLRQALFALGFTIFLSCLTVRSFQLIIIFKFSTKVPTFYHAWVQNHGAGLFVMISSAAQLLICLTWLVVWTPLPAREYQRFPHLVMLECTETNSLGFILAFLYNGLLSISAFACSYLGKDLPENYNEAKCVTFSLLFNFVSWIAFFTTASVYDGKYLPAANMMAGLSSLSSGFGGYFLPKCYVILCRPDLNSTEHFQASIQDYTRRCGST
T1 sequence (Q7RTX0 21-852): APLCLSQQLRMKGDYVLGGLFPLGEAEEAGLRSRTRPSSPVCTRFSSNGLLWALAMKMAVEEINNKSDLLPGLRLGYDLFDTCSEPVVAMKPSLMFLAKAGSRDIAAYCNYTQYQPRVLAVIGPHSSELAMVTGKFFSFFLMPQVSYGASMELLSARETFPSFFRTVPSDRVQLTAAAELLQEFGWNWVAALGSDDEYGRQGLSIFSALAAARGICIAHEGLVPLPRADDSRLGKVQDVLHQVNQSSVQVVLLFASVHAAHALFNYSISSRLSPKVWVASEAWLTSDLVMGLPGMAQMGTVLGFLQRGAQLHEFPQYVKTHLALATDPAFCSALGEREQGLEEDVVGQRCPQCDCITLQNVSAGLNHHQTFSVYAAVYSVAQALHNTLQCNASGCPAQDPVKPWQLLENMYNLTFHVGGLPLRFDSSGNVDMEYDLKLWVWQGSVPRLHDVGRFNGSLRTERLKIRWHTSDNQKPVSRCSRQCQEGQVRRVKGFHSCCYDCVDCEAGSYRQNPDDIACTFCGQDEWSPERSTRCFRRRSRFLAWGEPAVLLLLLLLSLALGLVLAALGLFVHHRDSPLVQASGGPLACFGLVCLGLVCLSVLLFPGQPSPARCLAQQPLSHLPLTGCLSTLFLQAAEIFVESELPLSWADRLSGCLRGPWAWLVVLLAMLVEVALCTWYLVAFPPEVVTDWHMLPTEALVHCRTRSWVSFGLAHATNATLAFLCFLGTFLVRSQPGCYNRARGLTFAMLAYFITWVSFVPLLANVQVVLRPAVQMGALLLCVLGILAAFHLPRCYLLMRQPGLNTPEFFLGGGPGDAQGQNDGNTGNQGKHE
As to the kind of experiment: In vitro hT1R1/hT1R3 umami taste receptor activation assay (FLIPR, dose response). Type of series: cell-based.

For series [2], the target named is T2, hT1R2/hT1R3 sweet receptor (Homo sapiens, UniProt Q7RTX0+Q8TE23).
T2 construct: expressed in transfected cells; host or cells: HEK293 derivative stably expressing Gα15, clone S-9
T2 sequence (Q8TE23 20-839): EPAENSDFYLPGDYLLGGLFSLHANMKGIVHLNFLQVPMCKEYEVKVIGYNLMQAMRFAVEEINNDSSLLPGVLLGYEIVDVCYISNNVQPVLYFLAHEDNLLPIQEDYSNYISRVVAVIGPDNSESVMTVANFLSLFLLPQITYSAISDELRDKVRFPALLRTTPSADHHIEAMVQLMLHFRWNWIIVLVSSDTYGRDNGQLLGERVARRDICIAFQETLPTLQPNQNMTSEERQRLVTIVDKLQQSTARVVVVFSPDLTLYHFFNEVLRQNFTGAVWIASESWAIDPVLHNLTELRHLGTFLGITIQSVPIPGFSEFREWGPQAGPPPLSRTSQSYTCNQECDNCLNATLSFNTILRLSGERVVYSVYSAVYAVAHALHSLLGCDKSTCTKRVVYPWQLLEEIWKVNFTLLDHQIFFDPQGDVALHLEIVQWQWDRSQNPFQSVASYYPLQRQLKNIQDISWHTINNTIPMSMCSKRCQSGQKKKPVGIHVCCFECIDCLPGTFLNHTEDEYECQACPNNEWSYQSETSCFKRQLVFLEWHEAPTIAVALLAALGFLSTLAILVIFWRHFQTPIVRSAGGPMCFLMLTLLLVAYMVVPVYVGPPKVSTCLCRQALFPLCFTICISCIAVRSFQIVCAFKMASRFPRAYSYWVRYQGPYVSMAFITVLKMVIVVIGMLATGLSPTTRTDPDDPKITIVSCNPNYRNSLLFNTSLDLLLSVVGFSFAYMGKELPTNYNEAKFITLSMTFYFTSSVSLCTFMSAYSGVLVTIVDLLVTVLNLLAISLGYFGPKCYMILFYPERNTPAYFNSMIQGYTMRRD
T2 sequence (Q7RTX0 21-852): T1 sequence (Q7RTX0 21-852)
Put plainly: In vitro hT1R2/hT1R3 sweet taste receptor activation assay (FLIPR, dose response). It is filed as cell-based. To be noted: Table E, Sweet Enhancer Amides; read-out: Sweet EC50. The method in brief: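 Dose-response at 10 concentrations (60 nM–30 µM, duplicates) measured as Fluo-3AM calcium fluorescence on FLIPR in hT1R2/hT1R3 S-9 cells, in D-PBS at room temperature. Responses scaled to 400 mM D-fructose. EC50s from regression with all curve parameters floating.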

The mark [3] stands for this setting: read-out: EC50 for activation of a hT1R1/hT1R3 umami receptor expressed in an HEK293 cell line.

Molecules are shown by their SMILES. Read-outs that look alike come from different tables or passages of the source.

In general, melting point refers to the temperature of the solid-liquid transition. On to `Cc1ccc(CNC(=O)C(=O)NCCc2ccccn2)n1C` [Example 131, N-(1,5-Dimethyl-1H-pyrrol-2-ylmethyl)-N′-(2-pyridin-2-yl-ethyl)-oxalamide], for which the melting point lay within 147 to 149 °C. For the same molecule, the EC50 in series [1] (setting [3]) was found to be 2300 nM.

The molecule `CCCC(CCC)NC(=O)c1ccc2oc(CC)nc2c1` [Example 41, 2-Ethyl-benzooxazole-5-carboxylic acid (1-propyl-butyl)-amide] returned a melting point of 107 to 108 °C. In series [1] (setting [3]), the EC50 is 680 nM.

As to `COc1ccc(CNC(=O)C(=O)NCCc2ccc(C)cn2)c(OC)c1` [Example 155, N-(2,4-Dimethoxybenzyl)-N′-(2-(5-methylpyridin-2-yl)ethyl)oxalamide], the melting point was 124 to 125 °C. Moreover, in series [1] (setting [3]), the EC50 came out at 70 nM.

The molecule `COc1ccc(CNC(=O)C(=O)NCCc2cc(C)ccn2)c(OC)c1` [Example 154, N-(2,4-Dimethoxybenzyl)-N′-(2-(4-methylpyridin-2-yl)ethyl)oxalamide] registered a melting point of 144 to 145 °C. In series [1] (setting [3]), the EC50 is 1640 nM.

Regarding `Cc1ccc(CNC(=O)C(=O)NCCc2ccccn2)c(C)c1` [Example 133, N-(2,4-dimethylbenzyl)-N′-(2-(pyridin-2-yl)ethyl)oxalamide], the melting point lay within 148 to 149 °C. The EC50 in series [1] (setting [3]) was found to be 70 nM.

In turn, `CCCC(CCC)NC(=O)c1ccc2nc(CCl)oc2c1` [Example 47, 2-Chloromethyl-benzooxazole-6-carboxylic acid (1-propyl-butyl)-amide] yielded a melting point of 137 to 137.5 °C. Moreover, in series [1] (setting [3]), the EC50 was found to be 450 nM.

With `CCCC(CCC)NC(=O)c1ccc2oc(SC)nc2c1` [Example 44, N-(heptan-4-yl)-2-(methylthio)benzo[d]oxazole-5-carboxamide], the melting point was 113 to 114 °C. The EC50 in series [1] (setting [3]) is 3100 nM.

`Cc1ccc(CNC(=O)C(=O)NCCc2ccccn2)cc1` [Example 125, N-(4-methyl-benzyl)-N′-(2-pyridin-2-yl-ethyl)-oxalamide] had a melting point of 152 to 154 °C. Also, the EC50 in series [1] (setting [3]) was found to be 410 nM.

`COc1ccccc1CNC(=O)C(=O)NCCc1ccccn1` [Example 122, N-(2-Methoxy-benzyl)-N′-(2-pyridin-2-yl-ethyl)-oxalamide]: the melting point lay in the range of 118 to 119 °C. Besides, the EC50 in series [1] (setting [3]) was 340 nM.

Take `CCCC(CCC)NC(=O)c1ccc2oc(OC)nc2c1` [Example 42, 2-Methoxy-benzooxazole-5-carboxylic acid (1-propyl-butyl)-amide]: the melting point was 137 to 138 °C. In series [1] (setting [3]), the EC50 was determined as 690 nM.

`COc1ccc(CNC(=O)C(=O)NCCc2cccs2)c(OC)c1` [Example 156, N-(2,4-Dimethoxybenzyl)-N′-(2-(thiophen-2-yl)ethyl)oxalamide] returned a melting point of 146 to 147 °C. Moreover, the EC50 in series [1] (setting [3]) was 4870 nM.

With `CC(C)c1ccc(NC(=O)NCCc2ccccn2)cc1` [Example 161, 1-(4-isopropylphenyl)-3-(2-(pyridine-2-yl)ethyl)urea], the melting point is 72 to 73 °C. The EC50 in series [1] (setting [3]) is 980 nM.

As to `CCOc1ccc(NC(=O)NCCc2ccccn2)cc1` [Example 160, 1-(4-ethoxyphenyl)-3-(2-(pyridine-2-yl)ethyl)urea], the melting point lay within 163 to 164 °C. Moreover, the EC50 in series [1] (setting [3]) was 4100 nM.

Turning to `CCCC(CCC)NC(=O)c1ccc(SC)c(C)c1` [Example 51, N-(heptan-4-yl)-3-methyl-4-(methylthio)benzamide], the melting point was 129 to 131 °C. In addition, in series [1] (setting [3]), the EC50 amounted to 120 nM.

In turn, `CCCC(CCC)NC(=O)Nc1ccc(OC)cc1OC` [Example 159, 1-(2,4-dimethoxyphenyl)-3-(heptan-4-yl)urea] showed a melting point of 172 to 173 °C. Besides, in series [1] (setting [3]), the EC50 came out at 980 nM.

For the molecule `COc1ccc(CNC(=O)C(=O)NCCc2ccccn2)cc1C` [Example 135], the melting point is 145 to 147 °C. Further, the EC50 in series [1] (setting [3]) stood at 1040 nM.

Regarding `CCCC(CCC)NC(=O)Nc1ccccc1Cl` [Example 158], the melting point was in the range of 135 to 136 °C. Moreover, the EC50 in series [1] (setting [3]) was determined as 370 nM.

`Cc1cc(CNC(=O)C(=O)NCCc2ccccn2)c(C)o1` [Example 130, N-(2,5-Dimethyl-furan-3-ylmethyl)-N′-(2-pyridin-2-yl-ethyl)-oxalamide]: the melting point fell in the range of 112 to 115 °C. The EC50 in series [1] (setting [3]) was found to be 1010 nM.

Molecule `Cc1ccsc1CNC(=O)C(=O)NCCc1ccccn1` [Example 124, N-(3-Methyl-thiophen-2-ylmethyl)-N′-(2-pyridin-2-yl-ethyl)-oxalamide] showed a melting point of 122 to 124 °C. Moreover, the EC50 in series [1] (setting [3]) was determined as 370 nM.

Regarding `CC1CCCCC1NC(=O)c1nsc(Cl)c1Cl` (stereo not drawn) [Example E78, 4,5-Dichloro-isothiazole-3-carboxylic acid (2-methyl-cyclohexyl)-amide], the EC50 in series [1] (Table E, read-out: Umami EC50) came out at 8510 nM; in series [2] it was 4240 nM.

The molecule `CCCC(CCC)NC(=O)c1ccc2oc(OCC)nc2c1` [Example 43, 2-Ethoxy-benzooxazole-5-carboxylic acid (1-propyl-butyl)-amide] returned a melting point of 128 to 129 °C. The EC50 in series [1] (setting [3]) was 5000 nM.

With `COc1ccc(CNC(=O)C(=O)NCCc2ccccn2)c(C)c1` [Example 126, N-(2-Methyl-4-methoxybenzyl)-N′-(2-pyridin-2-yl-ethyl)-oxalamide], the melting point was 133 to 134 °C. Moreover, the EC50 in series [1] (setting [3]) came to 110 nM.

Molecule `CCOc1ccc(CNC(=O)C(=O)NCCc2ccccn2)c(OC)c1` [Example 134, N-(4-ethoxy-2-methoxybenzyl)-N′-(2-(pyridin-2-yl)ethyl)oxalamide] registered a melting point of 117 to 118 °C. For the same molecule, the EC50 in series [1] (setting [3]) is 100 nM.

With `CCCC(CCC)NC(=O)c1cccc(C(F)(F)F)c1` [Example E68, N-(heptan-4-yl)-3-(trifluoromethyl)benzamide], the EC50 came out at 330 nM in series [1] (Table E, read-out: Umami EC50) and 3030 nM in series [2].

The record behind these values is US20060045953A1 (priority 2004, published 2006).
